Experiment [1] has as its system estrogen receptor (ER). The experiment can be described thus: viral ER reporter in ER negative breast cancer cell lines. Format: cell-based, human. As to conditions: virus 100:1. The procedure: FIG. 3: Reporter activity in variety of estrogen receptor alpha positive (MCF-7, T47-D, ZR75-1, BT474) and negative (Cal-51, SkBr3, and MDA-MB231 cell lines). For each figure, the order is as follows: (1) refers to the no ligand control.
For adenovirus infections, cell lines were plated in 96 wells at the given density in phenol red free DMEM supplemented with 5% double-stripped serum (PR/5% DSS). The following day cells were exposed to the given quantity of plaque forming units per cell (multiplicity of infection, MOI) in PR/SF medium. This was incubated at 37° C. for 1 hour after which the media was replaced by PR free/5% DSS containing the ligands.
(§1) Reporter Gene Assay 48 hours after virus infection, 20 ul of 20% Triton in PBS was added to each well and incubated at RT for 10 minutes. […] (CRPG) made up in TBS at a concentration of 8 mg/ml was then added to the wells and the plate was incubated, foil-wrapped, at 37° C. until a colour change was observed. Plate readings were taken at a wavelength of 547 nm.
We went on to test the virus reporter in a variety of ER positive and ER negative cell lines. Again 0.5×10^5 cells were infected with 100 virus per cell (100:1). Using the GFP virus it was evident that the infectability of the cell lines was variable. […]

Experiment [2] deals with T1, estrogen receptor (ER) (Homo sapiens, UniProt P03372).
T1 sequence (P03372 1-595): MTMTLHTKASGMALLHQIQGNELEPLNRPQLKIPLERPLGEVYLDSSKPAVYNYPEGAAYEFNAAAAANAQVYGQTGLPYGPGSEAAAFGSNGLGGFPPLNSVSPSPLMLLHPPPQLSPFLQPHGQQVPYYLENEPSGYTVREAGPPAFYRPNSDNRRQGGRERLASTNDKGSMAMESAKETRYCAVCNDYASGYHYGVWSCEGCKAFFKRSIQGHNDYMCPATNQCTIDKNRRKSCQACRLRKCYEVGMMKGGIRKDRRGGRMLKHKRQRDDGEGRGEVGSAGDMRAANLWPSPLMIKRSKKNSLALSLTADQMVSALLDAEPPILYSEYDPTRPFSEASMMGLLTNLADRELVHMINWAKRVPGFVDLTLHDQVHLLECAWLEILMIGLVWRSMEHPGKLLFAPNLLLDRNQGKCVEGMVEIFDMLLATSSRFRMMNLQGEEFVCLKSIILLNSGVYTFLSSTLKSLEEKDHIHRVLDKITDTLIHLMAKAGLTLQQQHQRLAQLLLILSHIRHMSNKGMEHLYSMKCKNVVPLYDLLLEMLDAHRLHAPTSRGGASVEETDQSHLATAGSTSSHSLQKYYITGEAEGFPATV
As to conditions: infected MCF7 cells.

For experiment [3], the system named is estrogen receptor (ER). The experiment in a line: adenoERreporter assay in fine needle aspirates (FNA) from recurrent breast cancer. Format: cell-based, human. The method, then: Cells obtained from FNAs were collected in PBS (Sigma, Poole, UK) containing 2% FCS. If the aspirate was bloody, erythrocyte lysis buffer (0.155M NH4Cl, 10 mM KHCO3, 0.1 mM EDTA, pH 7.4) was used to lyse the red blood cells and after a further wash with PBS, the cells were re-suspended in culture media for counting and immediate infections.
(§2) For infections of primary cells, 6-10,000 cells/well were allowed and exposed to the given quantity of virus, after which they were pelleted and re-supended in 200 ul of PR free/5% DSS medium containing the appropriate ligands prior to plating into 96-well plates.
as §1
We purified breast cancer cells from metastatic fluid, both pleural and ascites as well as fine needle aspirates (FNA) from recurrent breast cancer. These cells were counted and infected with adenoERreporter and after 48 hours a β-gal assay was performed. We have infected 9 metastatic effusions including 2 cell lines of passage number two, derived from pleural effusions and 4 FNAs. Tables 3 and 4 show the treatment history and characteristics of the patients that provided the samples. Where possible, some of the fluid was sent for cytology and ER staining. However, this was not always feasible due to the variability of cancer cells in the metastatic fluid.
For orientation: Reporter assays use an easily measured gene product as a stand-in for the process of interest.

Experiment [4] deals with T1, estrogen receptor (ER). The settings on record: antagonist at 10^−7M; MCF7, virus 100:1, 48 hours. The method, then: (§3) Cells were incubated for 48 hours following infections unless stated otherwise.
as §1

For experiment [5], the system named is estrogen receptor (ER). The experiment can be described thus: adeno-reporter assay in purified primary breast cancer cells (tumour, lymph node). Format: cell-based, human. The settings on record: for Reporter response: E2 10 nM, OHT 100 nM, ICI 100 nM, 48 h. The procedure:
(§4) The product was then filtered through a nylon mesh (Lockertex Ltd, Merseyside, UK) and the filtrate centrifuged at 2000 rpm, at room temperature (RT). The pellet was re-suspended in 9 mls of RPMI/1% FCS and a cell count performed to estimate the number of tumour cells in the preparation. […] A count of viable tumour cells was performed using trypan blue (Sigma, Poole, UK) prior to seeding in breast complete medium (DMEM/F-12 containing, 15 mM Hepes, 2 mM L-glutamine, 100U/ml penicillin, O. 1 mg/ml streptomycin, 50 U/ml polymixin B, 2.5 μg/ml amphotericin B, 5 μg/ml insulin, 10 μg/ml apo-transferrin, 100 μM ethanolamine, 1 μg/ml hydrocortisone, 10 ng/ml EGF) plus 5% FCS) for culture. The cells were used for experiments on day 3 after the initial plating.
as §2, §3, §1
(§5) We have used the adeno-reporter to infect purified cells from breast cancer and lymph nodes of 19 patients. The reporter assay was performed in a blinded fashion since the IHC report of ER status was not available until after the experiments were complete. Viral infections were performed in suspension so as not to loose cancer cells since they were only loosely adherent. Following exposure to the virus for an hour, the cells were washed to remove excess virus and then plated and incubated in PR free/5% DSS supplemented with the given ligands for 48 hours.

Experiment [6] has as its target T1, estrogen receptor (ER). The description is as above. Format: cell-based. As to conditions: E2 10 nM, OHT 100 nM, ICI 100 nM, 48 h. The procedure: as §4, §2, §3, §1, §5

SMILES strings stand for the structures.

The source of these data is patent US20050100888A1, “Methods based on hormone dependency of primary cancer cells” (Imperial College Innovations Limited, priority 2002, published 2005).

`C[C@]12CC[C@@H]3c4ccc(O)cc4C[C@@H](CCCCCCCCC[S+]([O-])CCCC(F)(F)C(F)(F)F)[C@H]3[C@@H]1CC[C@@H]2O` (stereo partly drawn) [ICI 182,780]: in experiment [1], the “effect on ERE driven β-gal reporter / baseline activity” value is given as “did not have a significant effect on the baseline activity”. The “β-gal expression by X-gal staining” value in experiment [2] is recorded as “completely abolished even basal levels of staining”. For the same molecule, the “Reporter Assay: inhibition” value in experiment [3] (FNA summary table, N = 1, IHC ER−/PR−, ?Responder) is “OHT/ICI inhibit by × 1.8”. For the same molecule, the “Reporter Activity” value in experiment [3] (Table 4 patient 8) T2GN0M0, primary ER++/PR−, FNA ER−/PR−, prior Arimidex 1y) is on record as “x1.0”. The “effect on E2 induced reporter activity” value in experiment [4] is on record as “blocked E2 induced reporter activity”. For the same molecule, the Reporter response result in experiment [5] (Table 2 patient 3 Ln) was “inh”; in experiment [5] (Table 2 patient 5 Ln, ER+/PR−, Pre), “ns”; in experiment [5] (Table 2 patient 8, ER+++/PR−, Post), “ns”; in experiment [5] (Table 2 patient 11, receptor status ?), “inh”; in experiment [5] (Table 2 patient 12 Ln), “ns”; in experiment [5] (Table 2 patient 12 Tu, Anaplastic small cell carcinoma, ER−/PR−), “ns”. Besides, the Reporter response result in experiment [5] (Table 2 patient 13, ER−/PR−, Post) is on record as “ns”; in experiment [5] (Table 2 patient 15 Ln) it was “ns”; in experiment [5] (Table 2 patient 15 Tu, ER−/PR−) it was “ns”; in experiment [5] (Table 2 patient 16 Ln) it was “ns”; in experiment [5] (Table 2 patient 16 Tu, Post), “ns”; in experiment [5] (Table 2 patient 17), “ns”. The Reporter response entry was “ns” in experiment [5] (Table 2 patient 18, ER−/PR−); “inh” in experiment [6] (Table 2 patient 6, ER+++/PR+++); “inh” in experiment [6] (Table 2 patient 7, ER+++/PR+++, Post). In addition, the “effect on reporter activity across patient samples” value in experiment [5] (purified cells from breast cancer and lymph nodes of 19 patients) is recorded as “inhibitory in all cases”.
